The assay deals with T1, human LPAR1 (Homo sapiens, UniProt Q92633).
T1 construct: expressed in transfected cells
The assay is described as follows: Test Example 1: antagonism against response of LPA-induced increase in intracellular Ca2+ concentration in RH7777 cells stably expressing human LPAR1. It counts as cell-based. Particulars: RH7777 cells stably expressing human LPAR1; Fluo-4 fluorescence, FDSS6000; read-out: IC50 value (concentration producing 50% antagonism against response of LPA-induced increase in intracellular Ca2+ concentration) (converted). As for the experimental part: (1) Preparation of RH7777 cells stably expressing human LPAR1
The human LPAR1 expression vector was transfected into RH7777 cells to acquire human LPAR1 expressing cells.
(2) Test of antagonism against response of LPA-induced increase in intracellular Ca^2+ concentration
Cells stably expressing human LPAR1 were used for a test of antagonism against response of LPA-induced increase in intracellular Ca^2+ concentration.
The cells were seeded onto the Poly-D-Lysine 96 well black plate and incubated overnight. […] 50 μL of the Basal Buffer (1×HBSS, 20 mM HEPES, 2.5 mM Probenecid, 0.05% BSA, 0.25 mg/mL Amaranth, pH 7.4) containing the test compound was added thereto, followed by incubation at 37° C. for 30 minutes. In FDSS6000 (Hamamatsu Photonics K.K.), LPAs were added, and the change in intracellular Ca^2+ concentration was detected using the fluorescence value of a wavelength of 540 nm by an excitation wavelength of 480 nm as an indicator. […] The Rmax under […] without the test compound was used as the control value. The Rmax under Basal Buffer stimulation with no LPAs or test compounds was used as the basal value.
The percentage (%) of increase in intracellular Ca^2+ concentration was calculated by dividing the value obtained by subtracting the basal value from Rmax in the presence of LPAs and each concentration of the test compound by the value obtained by subtracting the basal value from the control value. The concentration of each test compound was plotted on the X axis and the percentage (%) of increase in intracellular Ca^2+ concentration was plotted on the Y axis, and the IC50 value was calculated by nonlinear regression using XLfit.

Data on 51 compounds can be found in patent publication US12338203B2 (TAISHO PHARMACEUTICAL CO., LTD., priority 2019, dated 2025).

T1 sequence (Q92633 whole entry): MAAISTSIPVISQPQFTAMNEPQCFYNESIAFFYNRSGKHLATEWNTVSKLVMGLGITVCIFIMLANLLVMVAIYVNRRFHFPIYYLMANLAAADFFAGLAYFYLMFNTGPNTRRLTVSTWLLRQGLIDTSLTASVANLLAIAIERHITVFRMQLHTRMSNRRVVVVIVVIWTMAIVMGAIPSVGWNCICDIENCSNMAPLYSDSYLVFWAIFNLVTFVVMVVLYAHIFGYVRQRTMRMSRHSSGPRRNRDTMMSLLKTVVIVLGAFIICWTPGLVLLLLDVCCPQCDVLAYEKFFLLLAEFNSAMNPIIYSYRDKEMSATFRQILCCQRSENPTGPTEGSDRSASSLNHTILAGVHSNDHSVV

With `COc1cc(C(C)N(CCOCc2ccccc2)C(=O)NC2(C(=O)O)CC(F)(F)C2)c(C)c(OC)c1C1CC1` (stereo not drawn) [Example 5-146], the IC50 is 1.02 nM.
For the compound `CCOc1cc(C(C)N(CCO[C@@H](C)c2ccccc2)C(=O)NC2(C(=O)OC)CC(OCC)C2)c(Cl)c(OCC)c1C(C)=O` (stereo partly drawn) [Example 6-5], the IC50 was 272 nM.
In the case of `CCOc1c(C(C)(C)O)ccc([C@@H](C)N(CCCCc2ccccc2)C(=O)NC2(C(=O)O)CC(OCC)C2)c1C` (stereo partly drawn) [Example 1-104], the IC50 was 10.3 nM.
For `CCOc1c(C(C)=O)ccc([C@@H](C)N(CCO[C@@H](C)c2ccccc2)C(=O)N[C@]2(C(=O)O)C[C@H](OCC)C2)c1C` [Example 4-141], the IC50 was 7.62 nM.
Turning to `CCOc1cc(C(C)N(CCCCc2ccccc2)C(=O)NC(CC(=O)O)C(=O)O)cc(OCC)c1C` (stereo not drawn) [Example 1-12], the IC50 is 3600 nM.
For `CCOc1c(C(C)=O)ccc([C@@H](C)N(CCO[C@@H](C)c2ccccc2)C(=O)NC2(C(=O)O)CC2)c1C` [Example 4-113], the IC50 is 8.95 nM.
For the compound `CCOc1cc([C@@H](C)N(CCCCc2ccccc2)C(=O)NC2(C(=O)O)CCC2)cc(OCC)c1C(C)=O` [Example 1-20], the IC50 is 0.621 nM.
The result for `CCOc1cc([C@@H](C)N(CCO[C@@H](C)c2ccccc2)C(=O)N[C@H]2C[C@@](C)(C(=O)O)C2)cc(OCC)c1C(C)=O` [Example 4-120] reads 15.2 nM.
The result for `CCOc1cc([C@@H](C)N(CCc2ccc(OC)cc2)C(=O)NC2(C(=O)O)CC(F)(F)C2)cc(OCC)c1C` [Example 4-20] reads 148 nM.
Consider `CCOc1cc(C(C)N(CCCCc2ccccc2)C(=O)NC2(C(=O)O)CC(F)(F)C2)cc(OCC)c1CC` (stereo not drawn) [Example 1-47], for which the IC50 was 2.71 nM.
With `COc1cc(Br)cc(C(C)N(CCCCc2ccccc2)C(=O)NC2(C(=O)O)CC(F)(F)C2)c1` (stereo not drawn) [Example 5-22], the IC50 was 7.13 nM.
Regarding `CCOc1cc([C@@H](C)N(CCCCc2cccc(C)c2)C(=O)NC2(C(=O)O)CC(F)(F)C2)cc(OCC)c1C` [Example 4-16], the IC50 is 4.05 nM.
Regarding `CCOc1cc([C@@H](C)N(CCC(F)(F)Cc2ccccc2)C(=O)NC2(C(=O)O)CCC2)cc(OCC)c1C(C)=O` [Example 4-81], the IC50 was 7.89 nM.
On to `CCO[C@H]1C[C@@](NC(=O)N(CCOCc2ccccc2)C(C)c2cc(OC)c(C(C)=O)c(OC)c2Cl)(C(=O)O)C1` (stereo partly drawn) [Example 5-127], for which the IC50 is 3.94 nM.
Take `COc1cc(C(C)N(CCO[C@@H](C)c2ccccc2)C(=O)NC2(C(=O)O)CC(F)(F)C2)c(Cl)c(OC)c1C1CC1` (stereo partly drawn) [Example 5-149]: the IC50 is 2.58 nM.
Turning to `CCOc1cc([C@@H](C)N(CCO[C@@H](C)c2ccccc2)C(=O)N[C@]2(C(=O)O)C[C@@H](OCC)C2)cc(OCC)c1C1(O)CC1` [Example 4-137], the IC50 was 21.9 nM.
Regarding `CCOc1c(C(C)=O)ccc([C@@H](C)N(CCOCc2ccccc2)C(=O)NC2(C(=O)O)CC(F)(F)C2)c1C` [Example 4-106], the IC50 was 1.04 nM.
Turning to `CCOc1cc([C@@H](C)N(CCCCc2ccccc2)C(=O)NC2(C(=O)O)CCOCC2)cc(OCC)c1C1(O)CC1` [Example 1-153], the IC50 is 173 nM.
Regarding `CCOc1cc(C(C)N(CCOCc2ccccc2)C(=O)NC2(c3nn[nH]n3)CC2)cc(OCC)c1C(C)=O` (stereo not drawn) [Example 10-5], the IC50 was 2.85 nM.
For the compound `CCOc1cc(C(C)N(CCOCc2ccccc2)C(=O)NC2(C(=O)O)CC(OCC)C2)c(Cl)c(OCC)c1C(C)=O` (stereo not drawn) [Example 5-220], the IC50 is 2.13 nM.
The result for `COc1cc(C(C)N(CCO[C@@H](C)c2ccccc2)C(=O)NC2(C(=O)O)CCOCC2)c(C)c(OC)c1C1CC1` (stereo partly drawn) [Example 5-181] reads 3.51 nM; that for `COc1cc(C(C)N(CCOCc2ccccc2)C(=O)NC2(C(=O)O)CCC2)cc(OC)c1C(C)=O` (stereo not drawn) [Example 5-130], 7.9 nM.
As for `CCOc1cc([C@@H](C)N(CCCCc2ccccc2)C(=O)NC2(C(=O)O)CC(OC)C2)cc(OCC)c1C(C)O` (single isomer, unassigned) [Example 1-89], the IC50 was 2.21 nM.
As to `CCOc1cc(C(C)N(CCC(F)(F)Cc2ccccc2)C(=O)NC2(c3nn[nH]n3)CC(F)(F)C2)c(Cl)c(OCC)c1C(C)=O` (stereo not drawn) [Example 10-12], the IC50 was 21.5 nM.
For `CCOc1cc([C@@H](C)N(CCC(F)(F)Cc2ccccc2)C(=O)NC2(C(=O)O)CC(OC)C2)c(Cl)c(OCC)c1C(C)=O` (stereo partly drawn) [Example 5-42], the IC50 is 7.45 nM.
Consider `COc1cc(C(C)N(CCOCc2ccccc2)C(=O)NC2(C(=O)O)CC(F)(F)C2)cc(OC)c1C1CC1` (stereo not drawn) [Example 5-142], for which the IC50 is 1.74 nM.
Take `CCOc1cc(C(C)N(CCCCc2ccccc2)C(=O)NC2CCC[C@H]2C(=O)O)cc(OCC)c1C` (stereo partly drawn) [Example 1-136]: the IC50 was 18.2 nM.
`CCOc1c(C(C)=O)ccc([C@@H](C)N(CCCC(F)(F)c2ccccc2)C(=O)NC2(C(C)=O)CC(OCC)C2)c1C` (stereo partly drawn) [Example 4-71]: the IC50 is 8.06 nM.
For the compound `CCOc1cc([C@@H](C)N(CCO[C@@H](C)c2ccccc2)C(=O)NC2(C(=O)O)CCOCC2)c(Cl)c(OCC)c1C(C)=O` [Example 5-33], the IC50 was 2.77 nM.
For the compound `CCOc1cc(C(C)N(CCOCc2ccccc2)C(=O)NC2(C(=O)O)CC(OC)C2)c(Cl)c(OCC)c1C1CC1` (stereo not drawn) [Example 5-200], the IC50 was 0.548 nM.
As to `CCOc1cc(C(C)N(CCCCc2ccccc2)C(=O)NC2(C(=O)O)CC(F)(F)C2)cc(OCC)c1C(C)=O` (stereo not drawn) [Example 1-29], the IC50 is 3.12 nM.
Consider `CCOc1cc(C(C)N(CCCCc2ccccc2)C(=O)NC2(CC(=O)O)Cc3ccccc3C2)cc(OCC)c1C` (stereo not drawn) [Example 1-147], for which the IC50 was 40.6 nM.
As for `COc1cc(C(C)N(CCCCc2ccccc2)C(=O)NC2(C(=O)O)CCC2)cc(OC)c1C` (stereo not drawn) [Example 1-23], the IC50 is 13 nM.
In the case of `CCOc1cc([C@@H](C)N(CCCCc2ccccc2)C(=O)NC2CCC(C(=O)O)C2)cc(OCC)c1C(C)=O` (stereo partly drawn) [Example 1-140], the IC50 was 65.9 nM.
Take `CCOc1cc([C@@H](C)N(CCCC(F)(F)c2ccccc2)C(=O)NC2(C(=O)O)CC(OC)C2)cc(OCC)c1C(C)O` (single isomer, unassigned) [Example 4-61]: the IC50 was 3.99 nM.
As to `CCOc1cc([C@@H](C)N(CCCCc2ccc(C)cc2)C(=O)NC2(C(=O)O)CC(F)(F)C2)cc(OCC)c1C` [Example 4-17], the IC50 was 9.68 nM.
For the compound `CCOc1cc(C(C)N(CCCCc2ccccc2)C(=O)NC2(C(N)=O)CCCC2)cc(OCC)c1C` (stereo not drawn) [Example 6-1, 1-({[1-(3,5-Diethoxy-4-Methylphenyl)Ethyl](4-Phenylbutyl) Carbamoyl}Amino)Cyclopentane-1-Carboxamide], the IC50 is 1890 nM.
For the compound `CCOc1cc(C(C)N(CCCCc2ccccc2)C(=O)NC2(C(=O)NS(C)(=O)=O)CC(F)(F)C2)cc(OCC)c1C(C)O` (stereo not drawn) [Example 7-2], the IC50 was 9.55 nM.
Turning to `CCOc1cc([C@@H](C)N(CCCCc2ccccc2)C(=O)NC2(C(=O)O)CC(F)(F)C2)cc(OCC)c1CC` [Example 1-48], the IC50 was 2.47 nM.
Consider `CCOc1cc([C@@H](C)N(CCCCc2ccccc2)C(=O)NC2(c3nn[nH]n3)CC(F)(F)C2)c(Cl)c(OCC)c1C(C)O` (stereo partly drawn) [Example 10-10], for which the IC50 is 7.08 nM.
Take `CCNc1cc(C(C)N(CCCCc2ccccc2)C(=O)NC2(C(=O)O)CC(F)(F)C2)cc(OCC)c1C#N` (stereo not drawn) [Example 5-114]: the IC50 was 4.19 nM.
For `CCOc1cc([C@@H](C)N(CCO[C@@H](C)c2ccccc2)C(=O)N[C@]2(C(=O)O)C[C@@H](OCC)C2)cc(OCC)c1C(C)O` (stereo partly drawn) [Example 4-135], the IC50 is 5.33 nM.
In the case of `CCOc1cc(C(C)N(CCCCc2ccccc2)C(=O)NC2(C(=O)O)CC2)c(Cl)c(OCC)c1C(C)=O` (stereo not drawn) [Example 5-44], the IC50 was 3.38 nM.
Regarding `CCOc1cc([C@@H](C)N(CCC(F)(F)Cc2ccccc2)C(=O)N[C@]2(C(=O)O)C[C@@H](OC)C2)cc(OCC)c1C(C)=O` [Example 4-89], the IC50 is 7.59 nM.
`CCOc1cc([C@@H](C)N(CCCC(F)(F)c2ccccc2)C(=O)NC2(C(=O)O)CC(F)(F)C2)cc(OCC)c1C1CC1` [Example 4-59]: the IC50 was 1.62 nM.
The result for `CCOc1cc([C@@H](C)N(CCCCc2ccccc2)C(=O)N[C@H]2COC[C@H]2C(=O)O)cc(OCC)c1C(C)=O` [Example 1-162] reads 3.92 nM; that for `CCOc1cc(C(C)N(CCCCc2ccc(F)cc2)C(=O)NC2(C(=O)O)CC(F)(F)C2)cc(OCC)c1C` (stereo not drawn) [Example 4-9], 11.6 nM; that for `CCOc1cc([C@@H](C)N(CC2CC(c3ccccc3)C2)C(=O)NC2(C(=O)O)CC(F)(F)C2)cc(OCC)c1C` (stereo partly drawn) [Example 4-42], 25.2 nM.
The result for `COc1cc(C(C)N(CCOC(C)c2ccccc2)C(=O)NC2(C(=O)O)CCC2)c(C)c(OC)c1C1CC1` (stereo not drawn) [Example 5-139] reads 2.95 nM; that for `CCOc1cc(C(C)N(CCCCc2ccccc2)C(=O)NC2(C(=O)O)CC(F)(F)C2)cc(OCC)c1C(=O)CC` (stereo not drawn) [Example 1-58], 4.24 nM; that for `CCOc1cc([C@@H](C)N(CCCCc2ccccc2)C(=O)NC2(C(=O)O)CC(N3CCCC3)C2)cc(OCC)c1C` (stereo partly drawn) [Example 1-108], 512 nM.
